From patent publication US20240254135A1, “POLYPHENOL COMPOUNDS” (Epirium Bio Inc., priority 2022, published 2024) come the findings set out here.

Series [1] in a line: Pharmacokinetics: quantitative determination in mice plasma (LCMS). It counts as in vivo, C57BL/6 Mice. Particulars: C57BL/6, mouse, 10 mg/kg PO single dose, 10% NMP vehicle; for AUC(0-t): read-out: AUC0-4 h. As to the method: C57BL/6 Mice, Age 7-9 weeks, body weight range 20-25 g were used. The mice were fasted overnight. Mice were dosed once a day for a single day at 10 mg/kg, 10 mg/kg. 6 time-points were used for whole blood. 10% NMP was used as a vehicle. 9 animals were used per treatment, with three groups of three animals each. Group 1 had time points at 15 and 60 minutes, Group 2 had time points at 30 and 120 minutes, and Group 3 had time points at 90 and 240 minutes. An Oral (PO) route was used. Plasma and brain samples were collected (brain sample collected at terminal time point). Plasma was collected through the centrifugation of whole blood at 10,000 rpm for 10 minutes at 4° C. Samples were stored at −80° C. until processing.
1.00 mg/mL in 100% MeOH PP vials (prepared at RT yellow light) at 2-8° C. were used as stock solution. 12.22-50000 ng/ml using 80% MeOH PP vials (prepared at RT yellow light) at 2-8° C. were used as working solution. 0.98-4000 ng/ml (prepared at RT yellow light) was used for the curve range. For Compounds 75b and 78a, 1.00 mg/mL of Compound 79 in 100% methanol Ria vials (Prepared at RT yellow light) was used as IS stock solution, and 60 ng/ml of Compound 79 in 80% methanol (Prepared at RT yellow light) was used as IS working solution. For Compound 76b, 1.00 mg/mL of Compound 44 in 100% methanol Ria vials (Prepared at RT yellow light) was used as IS stock solution, and 60 ng/ml of Compound 44 in 80% methanol (Prepared at RT yellow light) was used as IS working solution. A linear, 1/x2 fit type was used. The injection volume was 15 μL. Mobile Phase A was 0.1% Formic Acid in water at room temperature. Mobile Phase B was 100% methanol at room temperature. R0 wash solution was 80% methanol at room temperature. R^3 wash solution was IPA/MeOH/ACN/water (1:1:1:1) at room temperature. The column was Agilent Eclipse 50*2.1 mm 1.8 μm and the instrument was Shimadzu LC-40 UPLC and AB Sciez 6500+ with LCMS002.
For Compound 75b, using a pipette with Methanol-rinsed pipette tips, 25 μL of each sample was aliquoted (calibration curve sample, QC samples and blank matrix) to labeled 12×75-mm glass tubes. Using Methanol-rinsed pipette tips, 5.0 μL of IS of conc. 60 ng (Compound 79) was aliquoted to each standards and samples except Blank. All tubes were mixed on a multi-tube vortex for approximately 30 seconds. 50 μL of 10 mM Sodium bicarbonate were added. 1 ml of Ethyl Acetate was added. All tubes were mixed on a multi-tube vortex for approximately 5 minutes then centrifuged for 10 min at 5,000 rpm, 4° C. The sample was kept in methanol containing dry ice for a few seconds to freeze the Aqueous layer (flash freeze method). The upper organic layer was poured from the frozen tubes into the labeled 12×75-mm glass tubes then evaporated to dryness under nitrogen using Liquid Evaporator (30° C., ˜15 psi, ˜10 mins). 200 μl of reconstitution solution (0.1% Acetic acid:MeOH (60:40 v/v) were added into each tube. Samples were vortexed for 30 seconds then transferred to amber glass injection vials for injection.
For Compounds 76b and 78a, using a pipette, 25 μL of each sample were aliquoted (calibration curve sample, QC samples and blank matrix) to labeled 1.5 ml eppendorfs. Using a pipette, 5.0 μL of IS of conc. 100 ng (Cocktail IS) was aliquoted to each standards and samples except Blank. All tubes were mixed on a multi-tube vortex for approximately 30 seconds. 1 ml of tert-butyl methyl ether (TBME) was added. All tubes were mixed on a multi-tube vortex for approximately 5 minutes then centrifuged for 10 min at 10,000 rpm, 4° C. The sample was kept in methanol containing dry ice for few seconds to freeze the Aqueous layer (flash freeze method). The upper organic layer was poured from the frozen tubes into the labeled 12×75-mm rial vials then vaporated to dryness under nitrogen using Liquid Evaporator (30° C., −15 psi, 10 mins). 200 μl of reconstitution solution (10 mM Ammonium Formate: MeOH) (40:60 v/v) was added into each tube. […]

The target in series [2] is T1, mitochondrial ATP synthase (Mus musculus, UniProt P56480+Q03265).
T1 construct: from tissue; host or cells: mouse heart, isolated mitochondria (fresh or frozen)
In words: Maximal ATP hydrolysis capacity in frozen heart mitochondria. As to conditions: frozen mitochondria (FIGS. 3 and 4). It counts as biochemical. As to the method:
ATP hydrolysis capacity or state 4 acidification was measured using Seahorse XF96 as described in Divakaruni et al. (2018) Anal Biochem 552:60-65 and Acin-Perez et al. (2021) Life 11(9):949, in MAS (70 mM Sucrose, 220 mM Mannitol, 5 mM KH2PO4, 5 mM MgCl2, 1 mM EGTA, 2 mM HEPES; pH 7.2). Plates were loaded with 0.75-1.5 μg of mouse heart mitochondria, or 25 μg of cell lysate. Cell lysates were prepared by subjecting the samples to 4 cycles of free thaw (liquid nitrogen—37° C. water bath) before measuring protein concentration. When assessing compounds effect on respirometry, the compounds were added in MAS after sample centrifugation. Initial respiration of the samples was sustained by the addition of 5 mM succinate+2 μM rotenone in the MAS after centrifugation. Injections were performed at the following final concentration in the well: Antimycin A (2 μM), oligomycin (5 μM), FCCP (1 μM), ATP (20 mM). To assess maximal ATP concentration, ATP was injected consecutively.
An additional assay was developed to determine the maximal ATP hydrolysis capacity in frozen mitochondria. Maximal ATP hydrolytic capacity was assessed in frozen heart mitochondria where mitochondrial respiration is inhibited by Antimycin A and maximal ATP hydrolysis is driven by co-injection of FCCP and ATP, followed by inhibition in the presence of oligomycin.

By Cmax is commonly meant the highest concentration seen after dosing. One may read the Tmax as the time from dosing to the highest level. For `COc1cc(C2Oc3ccccc3CC2O)ccc1F` (single isomer, unassigned) [Compound 75b, 2-(4-fluoro-3-methoxyphenyl)chroman-3-ol], in series [1], the maximum concentration (Cmax) is 138 ng/mL, the Tmax was found to be 90 min and the AUC(0-t) was determined as 133 ng·h/mL.

Consider `Oc1cc(O)c2c(c1)OC(c1ccc(O)c(F)c1)C(O)C2` (single isomer, unassigned) [Compound 76b, 2-(3-fluoro-4-hydroxyphenyl)chromane-3,5,7-triol], for which, in series [1], the Cmax came out at 89.3 ng/mL, the Tmax was 15 min and the AUC(0-t) was determined as 45.7 ng·h/mL.

For the compound `Oc1ccc2c(c1)OC(c1ccc(O)c(C(F)(F)F)c1)C(O)C2` (single isomer, unassigned) [Compound 77b, 2-(4-hydroxy-3-(trifluoromethyl)phenyl)chromane-3,7-diol], in series [2], the decrease in hydrolysis is 25%.

Consider `Oc1cc(O)c2c(c1)OC(c1ccccc1)C(O)C2` (single isomer, unassigned) [Compound 78a, 2-phenylchromane-3,5,7-triol], for which, in series [1], the highest concentration (Cmax) was determined as 49.8 ng/mL, the Tmax worked out at 15 min and the AUC(0-t) is 59.5 ng·h/mL.
